Earlier results on 41 substances are cited in publication PMC8198792, “Prediction of Anticancer Peptides with High Efficacy and Low Toxicity by Hybrid Model Based on 3D Structure of Peptides” (International Journal of Molecular Sciences, 2021).

Where two headings read alike, the source gives them in different places.

The test system of this data set is cancer cell lines. Set-up: method as in 6 sources, ref CancerPPD [45] and SATPdb ||| ref CancerPPD/SATPdb ||| ref CancerPPD, SATPdb, Swissprot (PDB) ||| ref CancerPPD/SATPdb/Swissprot(PDB) ||| ref CancerPPD / SATPdb ||| ... Particulars: cited from earlier work. The text has this: Supplement ijms-22-05630-s001.zip/ACPs(seguence).xlsx, sheet "D1" | column: Activity || Supplement ijms-22-05630-s001.zip/ACPs(seguence).xlsx, sheet "D2" | column: Activity || Supplement ijms-22-05630-s001.zip/ACPs(seguence).xlsx, sheet "D3" | column: Activity || (+ 2 further places)

Setting [1] is: ACPs dataset D1, 1 = ACP (positive), 0 = non-ACP (negative), label taken from databases, ref CancerPPD [45] and SATPdb.
Setting [2] is: ACPs dataset D4 (sheet "D4"), label 1 = ACP, experimentally validated ACPs, ref CancerPPD [45] and SATPdb.
[3] abbreviates: ACPs dataset D5 (sheet "D5"), label 1 = ACP (positive set), sequences with CancerPPD/SATPdb ID, ref CancerPPD, SATPdb.
Setting [4] is: ACPs dataset sheet D2, 1 = ACP (CancerPPD/SATPdb ID), 0 = non-ACP (Swissprot/PDB ID), ref CancerPPD, SATPdb, Swissprot (PDB).
Setting [5] is: ACPs dataset D1, label 1 = ACP, 0 = non-ACP (non-anticancer AMPs from SATPdb), ref CancerPPD/SATPdb.
Setting [6] is: ACPs dataset D4 (sheet "D4"), label 1 = ACP (CancerPPD ID), 0 = non-ACP (non-anticancer AMP, SATPdb ID), ref CancerPPD [45] and SATPdb.
The mark [7] stands for this setting: ACPs dataset D3 (supplement sheet "D3"), 1 = ACP, 0 = non-ACP, ref CancerPPD [45] and SATPdb.
The mark [8] stands for this setting: ACPs dataset D5 (sheet "D5"), label 1 = ACP (positive set), 0 = non-ACP (negative set), ref CancerPPD [45] and SATPdb.
Setting [9] is: ACPs dataset D3 (sheet "D3"), label 1 = ACP, 0 = non-ACP, ref CancerPPD/SATPdb.
The mark [10] stands for this setting: ACPs dataset D4 (sheet "D4"), label 1 = ACP, 0 = non-ACP, ref CancerPPD / SATPdb.
[11] abbreviates: ACPs dataset D5, sheet "D5", label 1 = ACP, 0 = non-ACP, ref CancerPPD [45] and SATPdb.

Consider “ALWKTMLKKLGTMALHAGKAALGAAADTISQGTQ [compound 1708]”, for which the Activity by setting is: under setting [1], 1; under setting [2], 1; under setting [3], 1; under setting [4], 1.

On to AIGSILGALAKGLPTLISWIKNR [compound 4433], for which the Activity under setting [1] is 1, the Activity under setting [2] is listed as 1, the Activity under setting [3] was 1 and the Activity under setting [4] is 1.

As for AWASFFKKAAHVGKHVGKAALTHYL [satpdb11738], the Activity under setting [5] is 0 and the Activity under setting [6] is reported as 0.

As for FLGALFHALSKLL [compound 3266], the Activity by setting is: under setting [1], 1; under setting [2], 1; under setting [3], 1; under setting [4], 1.

As to FLPMLAGLAASMVPKLVCLITKKC [satpdb11064], the Activity was 0 under setting [1] and 0 under setting [6].

On to GMWKKILGKLIR [compound 3643], for which the Activity is 1 under setting [7], 1 under setting [6] and 1 under setting [8].

In the case of ILPWKWPWWPWRR [compound 1827], the Activity reads like this: under setting [1], 1; under setting [2], 1; under setting [3], 1; under setting [4], 1.

Turning to “MRKEFHNVLSSGQLLADKRPARDYNRK [compound 3072]”, the Activity by setting is: under setting [1], 1; under setting [2], 1; under setting [3], 1; under setting [4], 1.

As for FVQWFSKFLGRIL [6GS5 NMR - A 1-13], the Activity under setting [8] is given as 0.

As for KVMAHMK [satpdb14375], the Activity under setting [9] is 0, the Activity under setting [10] was 0 and the Activity under setting [11] is 0.

With FKCRRWQWRMKKLGAPSITCVR [compound 1352], the Activity is 1 under setting [1], 1 under setting [2], 1 under setting [3] and 1 under setting [4].

In the case of KAYSTPRCKYLFRAVLCWL [satpdb14444], the Activity by setting is: under setting [9], 0; under setting [10], 0; under setting [11], 0.

As for KLALKLALKAlkAALKLA [satpdb10294], the Activity is on record as 0 under setting [1] and 0 under setting [6].

Take DGRKICLDPDAPRIKKIVQKKL [satpdb12249]: the Activity was 1 under setting [1], 1 under setting [2], 1 under setting [3] and 1 under setting [4].

“GLPTCGETCTLGTCYVPDCSCSWPICMKN [compound 4381]”: the Activity by setting is: under setting [1], 1; under setting [2], 1; under setting [3], 1; under setting [4], 1.

HHPHGHHPHGHHPHGHHPHG [compound 4189]: the Activity under setting [1] is 1, the Activity under setting [2] is on record as 1, the Activity under setting [3] is reported as 1 and the Activity under setting [4] is 1.

For the substance ITPATPFTPAIITEITAAVIA [satpdb10693], the Activity under setting [1] is reported as 0 and the Activity under setting [6] is 0.

With KWKSFIKKAKTSFLHSAKKF [satpdb14273], the Activity by setting is: under setting [9], 0; under setting [10], 0; under setting [11], 0.

“GIPCAESCVWIPCTVTALLGCSCSNKVCYN [satpdb12637]”: the Activity under setting [5] is on record as 0 and the Activity under setting [6] was 0.

Take “MTEEMLYAALLSFGLIFVGWGLGVLLLKIQGAEKE [4I7Z X-ray 2.80,F,1-35]”: the Activity by setting is: under setting [8], 0; under setting [4], 0.

Turning to FLPIIGQLLSGLL [satpdb10701], the Activity by setting is: under setting [7], 0; under setting [10], 0; under setting [11], 0.

Turning to FFPIVGKLLFGLL [satpdb13027], the Activity by setting is: under setting [9], 0; under setting [10], 0; under setting [11], 0.

With “ATYYGNGLYCNKQKCWVDWNKASREIGKIIVNGWVQHGPWAPR [satpdb12250]”, the Activity by setting is: under setting [5], 0; under setting [6], 0.

With RRPKGRGKRRREKQRPDAVPRR [satpdb18651], the Activity under setting [1] is reported as 1, the Activity under setting [2] was 1, the Activity under setting [3] is given as 1 and the Activity under setting [4] is on record as 1.

On to “GLLSVLGSVAKHVLPHVVPVIAEHL [compound 4424]”, for which the Activity reads like this: under setting [1], 1; under setting [2], 1; under setting [3], 1; under setting [4], 1.

For the substance AKLkAyPLKAKLyP [satpdb12877], the Activity under setting [9] is recorded as 0, the Activity under setting [10] is 0 and the Activity under setting [11] was 0.

For FKCRRWQWRMKKLGA [compound 1111], the Activity runs as follows: under setting [7], 1; under setting [2], 1; under setting [3], 1.

Take FLPLIASVAANLAPKIICKITKTC [satpdb12152]: the Activity by setting is: under setting [5], 0; under setting [6], 0.

In the case of GVVDILKGAAKDLAGHLATKVMNKL [satpdb14637], the Activity is 0 under setting [9], 0 under setting [10] and 0 under setting [11].

Regarding “MVQNDFVDSYDVTMLLQDDDGKQYYEYHKGLSLSDFEVLYGNTADEIIKLRLDKVL [2LE2 NMR - A/B 1-56]”, the Activity is, setting by setting: (ACPs dataset D2 (supplement ACPs(seguence).xlsx, sheet D2), dataset label 1/0 (ACP / non-ACP), entries identified by Swissprot(PDB ID), ref CancerPPD/SATPdb/Swissprot(PDB)) 0; under setting [11], 0.

Regarding GLLKRIKTLL [2MJQ NMR - A 1-10], the Activity by setting is: under setting [8], 0; under setting [4], 0.

For LTFSDWWKLLAE [compound 5059], the Activity by setting is: under setting [1], 1; under setting [2], 1; under setting [3], 1; under setting [4], 1.

Consider “IYSFDGRDIMTDPSWPQKVIWHGSSPHGVRLVDNYCEAWRTA [satpdb23000]”, for which the Activity is 1 under setting [1], 1 under setting [2], 1 under setting [3] and 1 under setting [4].

As to GIGKFLHSAKKFGKAFVGEIMNS [compound 1116], the Activity is reported as 1 under setting [7], 1 under setting [6] and 1 under setting [8].

For the substance KSVRGKGKGQKRKRKKSRYK [satpdb21584], the Activity by setting is: under setting [1], 1; under setting [2], 1; under setting [3], 1; under setting [4], 1.

Consider GLKEIFKAGLGSLVKGIAAHVAS [satpdb14561], for which the Activity under setting [10] is 0 and the Activity under setting [11] is 0.

Regarding FLKDHRISTFKNWPF [satpdb15356], the Activity is, setting by setting: under setting [1], 1; under setting [2], 1; under setting [3], 1; under setting [4], 1.

Turning to “GVLDTFKDVAIGVAKGAGTGVLKALLCKLDKSC [satpdb13223]”, the Activity under setting [5] was 0 and the Activity under setting [10] is given as 0.

For GFGMALKLLKKVL [compound 3586], the Activity under setting [7] is 1, the Activity under setting [6] is on record as 1 and the Activity under setting [8] was 1.

For FLGALLGPLMNLLQ [satpdb14038], the Activity under setting [9] is given as 0, the Activity under setting [10] is 0 and the Activity under setting [11] is listed as 0.

Take VGSGGCMFGNGK [satpdb10083]: the Activity reads like this: under setting [1], 1; under setting [2], 1; under setting [3], 1; under setting [4], 1.
